In patent US4066650A, “Keto-aldehyde-amine addition products and method of making same” (priority 1975, dated 1978):

How the values were obtained:
[1] = tested on: normal (non-tumorous) mice; assay: Acute toxicity (mortality), body weight change and 30-day survival in normal mice; details: for Δ body wt: mouse, in vivo, ip
Experimental: (§1) The biological effects of methylglyoxal maleimide ("A") and methylglyoxal glutaconic imide ("B") were determined by tests on normal (non-tumorous) and subcutaneous Sarcoma-180 tumor-bearing mice. […] The compounds were administered by intraperitoneal route and the values were calculated by standard methods (Goldin A., in Meth.Can.Res. 4, p. 193, 1968).
(§2) A thirty-day survival test was carried out with normal mice to determine any possible delayed toxicity.
(§3) The test solutions were prepared by dissolving either 38.72 mg of methylglyoxal maleimide ("A") or 5278 mg of methylglyoxal glutaconic imide ("B") in 100 ml of physiological saline. The pH of the solution was adjusted to 6.0, sterilized on Millipore filtration and stored in sterile vials at about 10° C. One […] of such solutions contained 0.387 mg of compound "A" or 52.78 mg of compound "B", respectively and when injected into mice of an average weight of 26 grams the dose was equivalent to 14.884 mg/kg of the compound "A" and 2030 mg/kg of the compound "B".
(§4) Normal, non-tumor-bearing mice of the same strain, sex and weight were also randomized and placed in separate test groups.
(§5) The compositions were injected at different dose levels, each dose being double the next-lower dose, with three test groups (30 mice) for each dose level. The injection was effected intraperitoneally into normal and tumor-bearing mice, starting on the fourth day after the inocculation with cancer, once daily for ten consecutive days. […] A proper number of normal and tumorous mice was treated with saline solution in the same manner, frequency and volume as a control experiment. The body weight change and mortality (acute toxicity) were recorded daily.
(§6) A number of normal animals treated with the drugs in the same manner as the tumorous ones were also sacrificed on the eleventh day, and their organs were collected for histological examination.

in vivo [2] = details: mouse, in vivo, ip
Experimental: as §1, §2, §3, §4, §5, §6

Sarcoma-180 = assay: Anti-tumor action on subcutaneous Sarcoma-180 in mice; format: in vivo, Swiss albino mice (Charles River CD-1 strain); parameters: ED: unit not given here; details: for ED: tumorous mice
Experimental: On the eleventh day (tumer age 14 days) the test and control mice were sacrificed, the tumor or tumorous area was cut out, weighed and stored in formaldehyde for histological examination. At the same time the liver, kidneys, spleen, heart, and a piece of the small intestine were collected and stored in formaldehyde for histopathological evaluation of the effect of the drugs on these tissues and organs.
The anti-neoplastic action of the drugs was assayed by comparison of the tumor weight present in treated and control animals and expressed as the percent of controls average weight (T/C%). The presence of malignancy in the tumors or tumor-areas of the treated animals was verified by histological examination.
The reabsorption of tissue, formed between the inocculation of the cancer cells and the onset of the treatment is relatively slow. Treated animals even under strong cancerostatic action of the drugs show a small quantity (100-200 mg) of tissue in the area where the tumor cells where deposited. It is therefore difficult to tell the nature of these residual tissues by macroscopic examination. Most of these residual "lumps" are made up of connective tissues and necrotic, scar tissues. If it were regarded as neoplasia without histological examination the T/C% calculation would give an erratic result in the evaluation of the anti-cancer action of the compound. Histological examination of these "lumps" therefore is exceedingly important in order to arrive at a valid evaluation of the effectiveness of the drugs especially in short-term experiments (10 days) as carried out in the present assays.

[3] = tested on: Sarcoma-180 tumor-bearing mice; assay: in vivo; details: mouse, in vivo, ip
Experimental: as §1, §3
(§7) Random-bred Swiss albino mice (Charles River CD-1 strain, average weight 26±3 g, females) were inocculated with 25 million Sarcoma-180 cells (in about 0.25 ml of ascitic fluid, cell age 7 days) on the right scapular region. The animals were randomized on the 4th day after the inocculation with the cancer cells, placed in separate test groups of 10 mice per group (5 mice/cage) and weighed.
(§8) The compositions were injected at different dose levels, each dose being double the next-lower dose, with three test groups (30 mice) for each dose level. The injection was effected intraperitoneally into normal and tumor-bearing mice, starting on the fourth day after the inocculation with cancer, once daily for ten consecutive days. The volume of the injection at each dose level was brought up to 1.0 ml with saline. A proper number of normal and tumorous mice was treated with saline solution in the same manner, frequency and volume as a control experiment. The body weight change and mortality (acute toxicity) were recorded daily.

in vivo [4] = details: mouse, in vivo, ip; remark: listed apart in the source
Experimental: as §1, §3, §7, §8

Question: Which “LD10 (maximum tolerated dose at 10% lethality)” value ([1]; mice, i.p. daily for 10 days) does the source give for `CC(=O)C(O)N1C(=O)C=CCC1=O` (stereo not drawn) [Methylglyoxal-glutaconic imide, N'-(2-keto-propane-1-ol)-2,6-dioxopyridine] here?
Answer: 1310 mg;kg

Question: What about the “effect of reduction in the total volume of injection on mortality” value ([1]; mice, i.p., volume below 1.0 ml/animal/day) of the same compound?
Answer: increase in mortality

Question: What about the Δ body wt ([1]; 63.5 mg/kg) of the same compound?
Answer: +0.55

Question: And the Δ body wt ([1]; 127 mg/kg)?
Answer: +0.3

Question: What about the Δ body wt ([1]; 254 mg/kg) of the same compound?
Answer: +0.15

Question: What about the Δ body wt ([1]; 508 mg/kg) of the same compound?
Answer: -0.1

Question: And the Δ body wt ([1]; 1016 mg/kg)?
Answer: -0.1

Question: What about the Δ body wt ([1]; 1524 mg/kg) of the same compound?
Answer: -0.4

Question: And the “30 day mortality rate of all treated nontumorous animals (compared with mortality in 10 days)” value ([1]; normal mice, i.p. daily for 10 days, 30 day observation)?
Answer: identical

Question: What about the mortality at 240 h (in vivo [2]; 63.5 mg/kg) of the same compound?
Answer: 0%

Question: And the mortality at 240 h (in vivo [2]; 127 mg/kg)?
Answer: 0%

Question: And the mortality at 240 h (in vivo [2]; 254 mg/kg)?
Answer: 0%

Question: What about the mortality at 240 h (in vivo [2]; 508 mg/kg) of the same compound?
Answer: 0%

Question: And the mortality at 240 h (in vivo [2]; 1016 mg/kg)?
Answer: 0%

Question: And the mortality at 240 h (in vivo [2]; 2032 mg/kg)?
Answer: 100%

Question: What about the ED90 (Sarcoma-180; Mus musculus, Sarcoma-180, ip, 240 h, read-out: ED90 (effective dose at 90% effectiveness)) of the same compound?
Answer: 210 mg/kg

Question: What about the “IT (therapeutic index LD10/ED90)” value (Sarcoma-180; mice, i.p. daily for 10 days) of the same compound?
Answer: 6.23

Question: What about the ED (Sarcoma-180; 63.5 mg/kg i.p. daily for 10 days) of the same compound?
Answer: > 5

Question: What about the ED (Sarcoma-180; 127 mg/kg i.p. daily for 10 days) of the same compound?
Answer: 55

Question: And the ED (Sarcoma-180; 254 mg/kg i.p. daily for 10 days)?
Answer: 100

Question: And the ED (Sarcoma-180; 508 mg/kg i.p. daily for 10 days)?
Answer: 100

Question: What about the ED (Sarcoma-180; 1016 mg/kg i.p. daily for 10 days) of the same compound?
Answer: 100

Question: What about the Δ body wt ([3]; 63.5 mg/kg) of the same compound?
Answer: +0.6

Question: And the Δ body wt ([3]; 127 mg/kg)?
Answer: +0.35

Question: What about the Δ body wt ([3]; 254 mg/kg) of the same compound?
Answer: +0.4

Question: And the Δ body wt ([3]; 508 mg/kg)?
Answer: +0.1

Question: What about the Δ body wt ([3]; 1016 mg/kg) of the same compound?
Answer: -0.3

Question: And the mortality at 240 h (in vivo [4]; 63.5 mg/kg)?
Answer: 0%

Question: What about the mortality at 240 h (in vivo [4]; 127 mg/kg) of the same compound?
Answer: 0%

Question: And the mortality at 240 h (in vivo [4]; 254 mg/kg)?
Answer: 0%

Question: And the mortality at 240 h (in vivo [4]; 508 mg/kg)?
Answer: 0%

Question: What about the mortality at 240 h (in vivo [4]; 1016 mg/kg) of the same compound?
Answer: 0%

Question: What about the mortality at 240 h (in vivo [4]; 2032 mg/kg) of the same compound?
Answer: 100%
